This passage reports MIC and MBC results from paper PMC8092876, “A Leucyl-tRNA Synthetase Inhibitor with Broad-Spectrum Antimycobacterial Activity” (Antimicrobial Agents and Chemotherapy, 2021).

≈ marks a conversion by molar mass, not a printed value. Where “and” joins values, the source holds several entries; their conditions need not be identical. Identical values can stand only once. Like-named read-outs stand apart in the source and are kept apart here.

The test system of one test is M. avium 11. The experiment in a line: MIC assay in 96-well plate format. Format: cell-based, M. avium subsp. hominissuis.
Test [1] relates to M. tuberculosis H37Rv ATCC 27294. Also on record: method as in PMID 28953378. The note with it: 7H9; cited from earlier work.
In test [2] the test system is M. abscessus Bamboo. In words: MIC assay in 96-well plate format. In kind it is cell-based, M. abscessus subsp. abscessus. Conditions: Mycobacteroides abscessus.
The test system of test [3] is M. tuberculosis H37Rv ATCC 27294. The experiment in a line: MIC assay in 96-well plate format. In kind it is cell-based. Conditions: Mycobacterium tuberculosis, 168 h.
The subject of test [4] is M. abscessus subsp. massiliense M111. The experiment in a line: MIC assay in 96-well plate format. Conditions: Mycobacteroides abscessus; M. abscessus subsp. massiliense M111, clinical isolate. In kind it is cell-based.
Test [5] deals with M. abscessus subsp. bolletii CCUG 50184T. In words: MIC assay in 96-well plate format. In kind it is cell-based. The note with it: Mycobacteroides abscessus, culture collection reference strain.
The subject of test [6] is M. abscessus Bamboo. In words: MIC and MBC determination in culture tubes (planktonic).
Method: M. abscessus Bamboo culture was grown to mid-log-phase (OD600 = 0.4 to 0.6) and diluted to OD600 = 0.1 (1 × 10^7 CFU/ml). Aliquots of 1.2 ml of the resulting bacteria suspension were transferred into 14 ml vented, round-bottom tubes (Thermo Fisher 150268, Rochester, NY, United States). A 10-point 2-fold dilution series of the compound was prepared, starting at 100 times the desired highest concentration. The compound concentration range tested was 100 to 0.195 μM. For each drug concentration tested, 12 μl of drug stock was added to two tubes and vortexed. Aliquots of 12 μl of DMSO were added to two tubes as the untreated controls (1% final DMSO concentration). From each tube, 200 μl was transferred to wells on a 96-well plate and the OD600 was measured using a Tecan Infinite M200 plate reader (day 0 reading). The tubes (1 ml final volume) were incubated on a tilted rack at 37°C on an orbital shaker at 220 rpm. On day 2, tubes were vortexed before transferring 200 μl onto a 96-well plate to measure the OD600 again (day 2 reading). To determine the MIC, day 0 and day 2 OD600 values were analyzed as previously described for MIC determination in 96-well plate format. To determine the MBC, CFU measurement was done for the OD600 = 0.1 bacteria suspension on day 0 and for each tube on day 2. Specifically, serial 10-fold dilutions were prepared in phosphate-buffered saline (Thermo Fisher 10010023) containing 0.025% Tween 80 (PBS/Tween 80) and plated on 7H10 agar. The MBC was defined as the lowest concentration of drug that reduced the CFU/ml value by 10-fold relative to the day 0 CFU/ml value.
In test [7] the test system is M. abscessus subsp. abscessus M337. The experiment in a line: MIC assay in 96-well plate format. Format: cell-based. The note with it: Mycobacteroides abscessus; M. abscessus subsp. abscessus M337, clinical isolate.
For test [8], the system named is M. abscessus Bamboo biofilms. In words: Biofilm growth inhibition assay (biofilm MIC and MBC). Format: cell-based, M. abscessus subsp. abscessus. The note with it: Mycobacteroides abscessus. As to the method: The biofilm growth inhibition assay was performed as previously described ([40]). Innovotech MBEC 96-well biofilm assay plates (Innovotech 19111, Edmonton, AB, Canada) were used, and the supplier’s manual was followed with minor modifications. Mid-log-phase M. abscessus Bamboo precultures (OD600 = 0.4 to 0.6) were spun down at 3200 × g for 10 min at 25°C and washed with 7H9 medium without Tween 80 (7H9nt). Bacteria were resuspended into 25 ml 7H9nt to an OD600 of 0.0125 (1.0 × 10^6 CFU/ml). […] The lids with the pegs were transferred to a new MBEC multititer plate containing 150 μl of fresh 7H9nt medium per well without bacteria (0 h time point). After that, the pegs with growing biofilm were transferred once a day to a new multititer plate containing fresh 7H9nt medium. To measure growth of the biofilm formed on the peg, the pegs were washed in 200 μl of 7H9nt medium before they were aseptically removed and placed in 1.7 ml microcentrifuge tubes (VWR 87003-294, Rador, PA, United States) containing 500 μl PBS/Tween 80. The microcentrifuge tubes were vigorously vortexed at 2,000 rpm for 90 s at 25°C to detach the bacteria from the pegs before samples were serially diluted and plated for the determination of CFU/peg. […] The average drug-free biofilm growth was calculated by subtracting the average 24 h CFU/peg value from the average 72 h CFU/peg value for the untreated control pegs. The biofilm MIC was defined as the lowest drug concentration that reduced the CFU/peg by 90% relative to that of the average drug-free biofilm growth.

Test [9] concerns M. abscessus subsp. abscessus M404. In words: MIC assay in 96-well plate format. Format: cell-based. Conditions: Mycobacteroides abscessus; M. abscessus subsp. abscessus M404, clinical isolate.
In test [10] the test system is M. abscessus Bamboo RM2 (LeuS K502E). The experiment in a line: microbe, parasite or virus in culture. In kind it is cell-based. The note with it: Mycobacteroides abscessus.
Test [11] relates to M. abscessus Bamboo RM5 (LeuS V417M). In words: microbe, parasite or virus in culture. The note with it: Mycobacteroides abscessus, RM5, batch 2, LeuS V417M. Format: cell-based.
Test [12] deals with M. abscessus subsp. abscessus M9. The experiment in a line: MIC assay in 96-well plate format. In kind it is cell-based. The note with it: Mycobacteroides abscessus; M. abscessus subsp. abscessus M9, clinical isolate.
For test [13], the system named is M. abscessus subsp. abscessus M422. In words: MIC assay in 96-well plate format. In kind it is cell-based. The note with it: Mycobacteroides abscessus; M. abscessus subsp. abscessus M422, clinical isolate.
The test system of test [14] is M. abscessus Bamboo RM3 (LeuS V417M). The experiment in a line: microbe, parasite or virus in culture. In kind it is cell-based. Conditions: Mycobacteroides abscessus, RM3, batch 1, LeuS V417M.
For test [15], the system named is M. abscessus Bamboo RM4 (LeuS T327R). The experiment in a line: microbe, parasite or virus in culture. Format: cell-based. Conditions: Mycobacteroides abscessus.
In test [16] the test system is M. intracellulare ATCC 13950. In words: MIC assay in 96-well plate format. Format: cell-based. The note with it: Mycobacterium intracellulare, ATCC13950; M. intracellulare ATCC 13950, culture collection reference strain.
The subject of test [17] is M. abscessus subsp. massiliense CCUG 48898T. The experiment in a line: MIC assay in 96-well plate format. Format: cell-based. Conditions: Mycobacteroides abscessus, culture collection reference strain.
For the next test, the system named is M. chimaera CCUG 50989T. The experiment in a line: MIC assay in 96-well plate format. In kind it is cell-based. The note with it: CCUG50989T, culture collection reference strain.
In test [18] the test system is M. abscessus subsp. bolletii M506. In words: MIC assay in 96-well plate format. In kind it is cell-based. Conditions: Mycobacteroides abscessus; M. abscessus subsp. bolletii M506, clinical isolate.
The test system of test [19] is M. abscessus subsp. abscessus K21. In words: MIC assay in 96-well plate format. Format: cell-based. The note with it: Mycobacteroides abscessus; M. abscessus subsp. abscessus K21, clinical isolate, infection model.
Test [20] deals with M. abscessus subsp. abscessus ATCC 19977. The experiment in a line: MIC assay in 96-well plate format. The note with it: Mycobacteroides abscessus, ATCC19977; M. abscessus subsp. abscessus ATCC 19977, culture collection reference strain. In kind it is cell-based.
Test [21] relates to M. abscessus subsp. abscessus M199. The experiment in a line: MIC assay in 96-well plate format. In kind it is cell-based. The note with it: Mycobacteroides abscessus; M. abscessus subsp. abscessus M199, clinical isolate.
In test [22] the test system is M. abscessus Bamboo RM1 (LeuS A428P). The experiment in a line: microbe, parasite or virus in culture. In kind it is cell-based. Conditions: Mycobacteroides abscessus.
Test [23] relates to M. abscessus subsp. bolletii M232. In words: MIC assay in 96-well plate format. Format: cell-based. Conditions: Mycobacteroides abscessus; M. abscessus subsp. bolletii M232, clinical isolate.

As to `NC[C@H]1OB(O)c2c(OCCO)ccc(Cl)c21` [GSK656, (S)-3-(aminomethyl)-4-chloro-7–(2-hydroxyethoxy)benzo[c][1,2]oxaborol-1(3H)-ol], the MIC was over 50 µM against M. avium 11 (Mycobacterium avium, 11, 96 h); 0.08 μM and 0.08^d μM in test [1]; 0.27 µM (≈ 0.0695 µg/mL) in the test with M. abscessus Bamboo [2] (72 h, read-out: MIC).
On to `CO[C@H]1/C=C/O[C@@]2(C)Oc3c(C)c(O)c4c(O)c(c(/C=N/N5CCN(C)CC5)c(O)c4c3C2=O)NC(=O)/C(C)=C\C=C\[C@H](C)[C@H](O)[C@@H](C)[C@@H](O)[C@@H](C)[C@H](OC(C)=O)[C@@H]1C` [rifampin, reference compound], for which the MIC in test [3] came to 0.66 µM (≈ 0.543 µg/mL).
`CC[C@H]1OC(=O)[C@H](C)[C@@H](O[C@H]2C[C@@](C)(OC)[C@@H](O)[C@H](C)O2)[C@H](C)[C@@H](O[C@@H]2O[C@H](C)C[C@H](N(C)C)[C@H]2O)[C@](C)(OC)C[C@@H](C)C(=O)[C@H](C)[C@@H](O)[C@]1(C)O` [CLR, clarithromycin, reference compound]: the MIC in [4] was 0.24 µM (≈ 0.18 µg/mL); in test [5], 2.5 µM (≈ 1.87 µg/mL); in the test with M. abscessus Bamboo [6] (Mycobacteroides abscessus, 48 h), 0.28 µM (≈ 0.209 µg/mL); in test [7], 0.9 µM (≈ 0.673 µg/mL); in test [8] (48 h with drug, 90% reduction of CFU/peg growth), 1.6 µM (≈ 1.2 µg/mL); in test [9] it was 0.2 µM (≈ 0.15 µg/mL). Further, the MIC with M. avium 11 (Mycobacterium avium, 96 h, M. avium 11, 7H9, 4 days, read-out: MIC) was 0.3 µM (≈ 0.224 µg/mL); in test [10], 0.38 µM (≈ 0.284 µg/mL); in test [11], 0.46 µM (≈ 0.344 µg/mL); in [12] it was 0.73 µM (≈ 0.546 µg/mL); in test [13], 0.65 µM (≈ 0.486 µg/mL); in [14], 0.43 µM (≈ 0.322 µg/mL). In addition, the MIC in test [15] was determined as 0.42 µM (≈ 0.314 µg/mL); in [16], 0.15 µM (≈ 0.112 µg/mL); in [17] it was 0.19 µM (≈ 0.142 µg/mL); in the test on M. chimaera CCUG 50989T it was 0.19 µM (≈ 0.142 µg/mL); against M. abscessus Bamboo [2], 0.31 µM (≈ 0.232 µg/mL); in the test on M. abscessus Bamboo [2] (72 h, M. abscessus Bamboo, 7H9, 3 days, read-out: MIC) it was 0.23 µM (≈ 0.172 µg/mL). Further, the MIC in the test with M. abscessus Bamboo [2] (72 h, M. abscessus Bamboo, CAMH broth, 3 days, read-out: MIC) stood at 0.07 µM (≈ 0.0524 µg/mL); in [18], 0.28 µM (≈ 0.209 µg/mL); in test [19], 0.4 µM (≈ 0.299 µg/mL); in test [20], 0.9 µM (≈ 0.673 µg/mL); in test [21], 2.7 µM (≈ 2.02 µg/mL); in test [22], 0.36 µM (≈ 0.269 µg/mL). In addition, the MIC in test [23] was found to be 0.95 µM (≈ 0.711 µg/mL). Besides, the MBC against M. abscessus Bamboo [6] (Mycobacteroides abscessus) was over 100 µM; with M. abscessus Bamboo [6] (planktonic M. abscessus Bamboo in culture tubes, day 2, 10-fold CFU/ml reduction vs day 0) it was over 100 µM; in [8] (10-fold CFU/peg reduction vs 24 h), over 100 µM.
